Test [1] in a line: Sensory evaluation in ramen noodle soup solution with potassium chloride (Experimental Example 3). As to conditions: for off-taste suppressing effect: Ramen noodle soup solution with 0.8 wt % potassium chloride, addition concentration 10 ppb (1.25 weight ppm with respect to potassium chloride); for intensity of off-tastes (bitter taste, metallic taste, harsh taste, astringent taste) derived from potassium chloride: base solutions of Tables 15 to 17 (ramen noodle soup, chicken broth, potage). On the procedure:
(§1) As shown in the following (1) to (3) below, 0.8 wt % of potassium chloride was added to a food base powder corresponding to 0.5 wt % of sodium chloride to prepare each base solution having an off-taste derived from potassium chloride.
Potassium chloride (0.8 g) was added to a soup powder (1.1 g) of a commercially available instant ramen noodle (manufactured by SANYO FOODS Co., Ltd., trade name “Sapporo Ichiban Shouyuaji”), hot water (98.1 g) was added to dissolve the mixture to prepare a base solution (ramen noodle soup solution).
(§2) Each compound shown in the following Tables 15 to 17 was added to each base solution (ramen noodle soup solution, chicken broth solution, potage solution) so as to achieve the concentration (addition concentration) shown in the following Tables 15 to 17 to prepare each evaluation sample.
(§3) By a method similar to that in Experimental Example 1, a panel of two experts determined the intensity of off-tastes (bitter taste, metallic taste, harsh taste, astringent taste) derived from potassium chloride in each evaluation sample.

A short description of test [2]: Sensory evaluation in potage solution with potassium chloride (Experimental Example 3). Particulars: Potage solution with 0.8 wt % potassium chloride; addition concentration 10 ppb (1.25 weight ppm with respect to potassium chloride). The method, then:
as §1
Potassium chloride (0.8 g) was added to a commercially available powdered instant potage (manufactured by Ajinomoto Co., Inc., trade name “Knorr (registered trade mark) Cup Soup Potage”) (7.1 g), hot water (92.1 g) was added to dissolve the mixture to prepare a base solution (potage solution).
as §2, §3

Test [3] is described as follows: Sensory evaluation of off-taste suppressing effect in 0.8 wt % potassium chloride aqueous solution (Experimental Examples 1 and 2). Particulars: for off-taste suppressing effect: 0.8 wt % potassium chloride aqueous solution; for intensity of off-tastes (bitter taste, metallic taste, harsh taste, astringent taste) derived from potassium chloride: potassium chloride aqueous solutions, Tables 1 to 14. On the procedure:
Each compound shown in the following Tables 1 to 13 was added to a 0.8 wt % potassium chloride aqueous solution at the concentration (addition concentration) shown in the following Tables 1 to 13 to prepare each evaluation sample.
Based on the following evaluation criteria, a panel of two experts determined by consensus the intensity of off-tastes (bitter taste, metallic taste, harsh taste, astringent taste) derived from potassium chloride in each evaluation sample, by reference to each potassium chloride aqueous solution adjusted to 0.8 wt %, 0.75 wt %, 0.7 wt %, or 0.65 wt %.
−: intensity of the same level as potassium chloride aqueous solution with potassium chloride concentration of not less than 0.8 wt %
+: intensity of the same level as potassium chloride aqueous solution with potassium chloride concentration of not less than 0.75 wt % and less than 0.8 wt %
++: intensity of the same level as potassium chloride aqueous solution with potassium chloride concentration of not less than 0.7 wt % and less than 0.75 wt %
+++: intensity of the same level as potassium chloride aqueous solution with potassium chloride concentration of not less than 0.65 wt % and less than 0.7 wt %
Each compound shown in the following Table 14 was added to a 0.8 wt % potassium chloride aqueous solution at the concentration (addition concentration) shown in the following Table 14 to prepare each evaluation sample.

A short description of test [4]: Sensory evaluation in chicken broth solution with potassium chloride (Experimental Example 3). As to conditions: chicken broth solution with 0.8 wt % potassium chloride; addition concentration 10 ppb (1.25 weight ppm with respect to potassium chloride). The method, then: as §1
Potassium chloride (0.8 g) was added to a commercially available powdered chicken broth mix (manufactured by Ajinomoto Co., Inc., trade name “Marutorigara Soup”) (1.0 g), hot water (98.2 g) was added to dissolve the mixture to prepare a base solution (chicken broth soup solution).
as §2, §3

Where [5] appears, read: addition concentration 1 weight ppb (0.125 weight ppm with respect to potassium chloride).
Setting [6] is: addition concentration 5 weight ppb (0.625 weight ppm with respect to potassium chloride).
Where [7] appears, read: addition concentration 10 weight ppb (1.25 weight ppm with respect to potassium chloride).
Where [8] appears, read: addition concentration 50 weight ppb (6.25 weight ppm with respect to potassium chloride).
Setting [9] is: addition concentration 100 weight ppb (12.5 weight ppm with respect to potassium chloride).

Molecules are shown by their SMILES.

With `CC1=C(O)C(=O)OC1C` (stereo not shown) [4,5-dimethyl-3-hydroxy-2(5H)-furanone], the off-taste suppressing effect result in test [1] is “++ (intensity of the same level as potassium chloride aqueous solution with potassium chloride concentration of not less than 0.7 wt % and less than 0.75 wt %)”; in test [2], “++ (intensity of the same level as potassium chloride aqueous solution with potassium chloride concentration of not less than 0.7 wt % and less than 0.75 wt %)”; in test [3] (setting [5]) it was “+ (intensity of the same level as potassium chloride aqueous solution with potassium chloride concentration of not less than 0.75 wt % and less than 0.8 wt %)”; in test [3] (setting [6]) it was “++ (intensity of the same level as potassium chloride aqueous solution with potassium chloride concentration of not less than 0.7 wt % and less than 0.75 wt %)”; in test [3] (setting [7]) it was “++ (intensity of the same level as potassium chloride aqueous solution with potassium chloride concentration of not less than 0.7 wt % and less than 0.75 wt %)”; in test [3] (setting [8]), “+ (intensity of the same level as potassium chloride aqueous solution with potassium chloride concentration of not less than 0.75 wt % and less than 0.8 wt %)”. Further, the off-taste suppressing effect entry in test [3] (setting [9]) is “+ (intensity of the same level as potassium chloride aqueous solution with potassium chloride concentration of not less than 0.75 wt % and less than 0.8 wt %)”; in test [3] (addition concentration 500 weight ppb (62.5 weight ppm with respect to potassium chloride)) it was “+ (intensity of the same level as potassium chloride aqueous solution with potassium chloride concentration of not less than 0.75 wt % and less than 0.8 wt %)”; in test [3] (addition concentration 1000 weight ppb (125 weight ppm with respect to potassium chloride)) it was “+ (intensity of the same level as potassium chloride aqueous solution with potassium chloride concentration of not less than 0.75 wt % and less than 0.8 wt %)”; in test [4], “++ (intensity of the same level as potassium chloride aqueous solution with potassium chloride concentration of not less than 0.7 wt % and less than 0.75 wt %)”. Further, the “intensity of off-tastes (bitter taste, metallic taste, harsh taste, astringent taste) derived from potassium chloride” value in test [1] and in test [3] was “decreased” throughout.

Regarding `CC1=C(O)C(=O)C(C)O1` (stereo not shown) [4-hydroxy-2,5-dimethyl-3(2H)-furanone], the off-taste suppressing effect entry in test [1] is “++ (intensity of the same level as potassium chloride aqueous solution with potassium chloride concentration of not less than 0.7 wt % and less than 0.75 wt %)”; in test [2], “++ (intensity of the same level as potassium chloride aqueous solution with potassium chloride concentration of not less than 0.7 wt % and less than 0.75 wt %)”; in test [3] (setting [5]) it was “+ (intensity of the same level as potassium chloride aqueous solution with potassium chloride concentration of not less than 0.75 wt % and less than 0.8 wt %)”; in test [3] (setting [6]), “+ (intensity of the same level as potassium chloride aqueous solution with potassium chloride concentration of not less than 0.75 wt % and less than 0.8 wt %)”; in test [3] (setting [7]) it was “++ (intensity of the same level as potassium chloride aqueous solution with potassium chloride concentration of not less than 0.7 wt % and less than 0.75 wt %)”; in test [3] (setting [8]) it was “++ (intensity of the same level as potassium chloride aqueous solution with potassium chloride concentration of not less than 0.7 wt % and less than 0.75 wt %)”. The off-taste suppressing effect result was “++ (intensity of the same level as potassium chloride aqueous solution with potassium chloride concentration of not less than 0.7 wt % and less than 0.75 wt %)” in test [3] (setting [9]); “++ (intensity of the same level as potassium chloride aqueous solution with potassium chloride concentration of not less than 0.7 wt % and less than 0.75 wt %)” in test [4]. The “intensity of off-tastes (bitter taste, metallic taste, harsh taste, astringent taste) derived from potassium chloride” value in test [1] and in test [3] was “decreased” in each case.

These data come from patent US20220279826A1, “OFF-FLAVOR SUPPRESSING AGENT” (AJINOMOTO CO., INC., priority 2019, published 2022).
